Among the data in PubChem BioAssay AID2060504 (Molecular Pharmacology Branch, DTP, NCI, 2025) are viability, T/C and IC50 values, retold here.

SMILES strings stand for the structures. “And” between values parts separate entries of the source, which are not always exact repeats. Equal entries are not always repeated.

The experiment has as its system 636577-100-R-J1-PDC complex spheroid viability. Nature of the experiment: Anticancer human tumor 636577-100-R-J1-PDC patient-derived endometrial adenocarcinoma cell line growth inhibition [GQUAD]. Conditions: for viability, T/C: stronger effect = lower value. An excerpt: DNA G-quadruplex Stabilizer Agents in Combinations in Complex Spheroids
A high-throughput screen of multi-cell type tumor spheroids was designed to identify active combinations of DNA G-quadruplex stabilizer agents and targeted small molecules. Complex spheroids include a stromal component modeled by human endothelial cells (HUVEC) and fibroblasts modeled by human mesenchymal stem cells (MSCs). The concentration ranges selected for each drug and investigational agent were based upon clinically achievable concentrations if the clinical Cmax of the agent was known.
Compounds. The drugs and investigational agents: pidnarulex (CX-5461; NSC782164), APTO-253 (NSC789042), BRACO-19 (NSC847499), peposertib (NSC802822), ceralasertib (NSC780249), elimusertib (NSC800525), camonsertib (NSC841442), AZD-1390 (NSC803789), olaparib (NSC753686), talazoparib (NSC767125), ART-558 (NSC835418), sotorasib (NSC818433), MRTX-1133 (NSC836407), SN-38 (NSC673596), topotecan (NSC609699), etoposide (NSC141540), doxorubicin (NSC123127), gemcitabine (NSC613327), 5-fluorouracil (NSC19893), paclitaxel (NSC125973), vemurafenib (NSC761431), panobinostat (NSC761190), R-306465 (JNJ-16241199; NSC773264), adavosertib (NSC754352), TP-3654 (NSC805149), carboplatin (NSC241240), KSQ-4279 (NSC840948), and staurosporine (NSC755774) were obtained from the National Cancer Institute (NCI) Developmental Therapeutics Program Chemical Repository (34). The FDA-approved anticancer drug set is available from the NCI Developmental Therapeutics Program. […] The stock solutions were prepared in dimethyl sulfoxide (DMSO, Sigma-Aldrich, St. Louis, MO, cat. D2650) at 800-fold the tested concentration and stored at -70 degrees C prior to their use. All drugs and investigational agents were tested over a range starting from a high concentration at or near the clinical Cmax and decreasing in half-log increments. If the clinical Cmax for an agent had not been determined, the highest concentration tested was 10 microM.
2.3 Cell Culture. All cells were maintained in an incubator at 37 degrees C and 5% CO2 with 95% humidity. The PDC lines were cultured according to standard operating procedures established by the NCI PDMR. All PDCs were thawed and cultured in Matrigel-coated flasks prepared with a working solution of 1X Ham's F-12 nutrient mix, without supplementation (Invitrogen, cat. 11765054), 100 U/mL penicillin-streptomycin (Invitrogen, cat. 15140122), and 2.5% Matrigel (Corning Inc., cat. 354248) for the first three passages. The 857933-349-R-J2-PDC line was cultured in 6C/Colon 1B media, which includes advanced DMEM/F-12 (Thermo Fisher Scientific, cat. 12634028), 10 mM HEPES (Thermo Fisher Scientific, cat. 15630080), 1X GlutaMAX supplement (Thermo Fisher Scientific, cat. 35050061), 0.1 mg/mL primocin (InvivoGen, cat. ant-pm-2), 10% defined fetal bovine serum, heat inactivated (HyClone Laboratories Inc., cat. SH30070.03HI), 50% L-WRN conditioned media (ATCC, cat. CRL-3276), 1.25 mM N-Acetyl-L-cysteine (Sigma-Aldrich, cat. A9165), 10 mM nicotinamide (Sigma-Aldrich, cat. N0636), 1X B-27 supplement (Thermo Fisher Scientific, cat. 17504044), 1X N-2 supplement (Thermo Fisher Scientific, cat. 17502048), 10 microM Y-27632 dihydrochloride (Tocris Bioscience, cat. 1254), and 50 ng/mL human EGF recombinant protein (Thermo Fisher Scientific, cat. PHG0311). The 485176-168-R4-J1-PDC line was cultured in Panc media, which includes all 6C/Colon 1B media components plus 100 ng/mL human FGF-10 (Thermo Fisher Scientific, cat. 100-26), 500 nM SB-431542 (Selleckchem, cat. S1067), and gastrin (Tocris, cat. 3006).
[…]
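Note: viability read after seven days of drug exposure.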
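Throughout, for viability, T/C: luminescence signal used as a proxy for viable cells; 100% = DMSO vehicle control wells.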

Usually viability, T/C stands for the ratio of treated to control. One may read the IC50 as the midpoint of a concentration-inhibition curve. `CN(C)c1ccc(Nc2c3ccc(NC(=O)CCN4CCCC4)cc3nc3cc(NC(=O)CCN4CCCC4)ccc23)cc1`: the viability, T/C is 104% [middle of 12 runs] (compound 0.0316 µM), 82.9% [middle of 12 runs] (compound 1 µM), 40.7% [middle of 12 runs] (compound 3.16 µM) and 6.05% [middle of 12 runs] (compound 10 µM). Moreover, the concentration for half-maximal inhibition (IC50) (compound alone, run of 03/26/2024) is 2.41 µM [middle of 11 runs].

As to `COc1cc(C2c3cc4c(cc3C(OC3OC5COC(C)OC5C(O)C3O)C3COC(=O)C23)OCO4)cc(OC)c1O` (centres undefined), the viability, T/C reads like this: (compound 0.0316 µM) 80.7% and 81.6% and 73.5%; (compound 0.1 µM) 43.7% and 40.4% and 34.9%; (compound 0.316 µM) 24.3% and 21.7% and 21.6%; (compound 1 µM) 18.6% and 19% and 17.9%; (compound 3.16 µM) 15.4% and 13.9% and 16.5%; (compound 10 µM) 13% and 12.7% and 13.3%. Moreover, the IC50 (curve of compound) was 81.9 nM and 76.2 nM and 64 nM.

On to `COc1ccc([C@@H](O)c2cc(-c3ncnc4cc(N5CCOCC5)ccc34)c(F)cc2Cl)nn1`, for which the viability, T/C was 93% and 95.4% and 33.8% (compound 0.0316 µM); 96.2% and 61.9% and 97.4% (compound 0.1 µM); 86.4% and 88.9% and 65.4% (compound 0.316 µM); 55.2% and 54.6% and 49.7% (compound 1 µM); 42.5% and 43.1% and 36.6% (compound 3.16 µM); 28.1% and 22.5% and 25.5% (compound 10 µM). Also, for the setting “curve of compound”, the IC50 was 1580 nM and 1970 nM and 1170 nM.

On to `COc1cccc2c1C(=O)c1c(O)c3c(c(O)c1C2=O)CC(O)(C(=O)CO)CC3OC1CC(N)C(O)C(C)O1` (centres undefined), for which the viability, T/C reads like this: (compound 0.0316 µM) 28.9% and 27% and 34.2%; (compound 0.1 µM) 18.4% and 18.1% and 16.8%; (compound 0.316 µM) 15.4% and 13.9% and 14.7%; (compound 1 µM) 7.51% and 9.99% and 11.6%; (compound 3.16 µM) 0.17% and 0.21% and 0.44%; (compound 10 µM) 0.53% and 0.32% and 0.4%. Besides, the IC50 (curve of compound) is less than 31.6 nM.

Take `Cc1[nH]c2ccccc2c1CCNCc1ccc(/C=C/C(=O)NO)cc1`: the viability, T/C (compound 0.000999 µM) is 80% and 86.3% and 79%; the viability, T/C (compound 0.00316 µM) is 57.6% and 53.8% and 75.6%; the viability, T/C (compound 0.00999 µM) is 34.1% and 38.9% and 51.3%; the viability, T/C (compound 0.0316 µM) was 15.3% and 17.2% and 16.4%; the viability, T/C (compound 0.0999 µM) is 6.66% and 8% and 7.02%; the viability, T/C (compound 0.316 µM) was 9.32% and 8.7% and 9.38%. Besides, the IC50 (curve of compound) was 4.63 nM and 4.41 nM and 10.4 nM.

`Cc1cccc(N(C)C(=O)C2C(O)CCN2c2nc(C)cc(C(F)(F)F)c2C#N)c1` (centres undefined): the viability, T/C (compound 0.0316 µM) was 55.9% and 99.9% and 91.4%; the viability, T/C (compound 0.1 µM) was 87% and 96.7% and 33.3%; the viability, T/C (compound 0.316 µM) is 95.6% and 94.5% and 96%; the viability, T/C (compound 1 µM) was 75.2% and 81.8% and 94.4%; the viability, T/C (compound 3.16 µM) is 76% and 84.7% and 55.7%; the viability, T/C (compound 10 µM) was 74.4% and 87.5% and 49.5%. In addition, under “curve of compound”, the IC50 is > 10000 nM and 9350 nM.

For the molecule `Cc1cnc(CNC(=O)c2c(=O)c3ccc(N4CCCN(C)CC4)nc3n3c2sc2ccccc23)cn1`, the viability, T/C by setting is: (compound 0.0316 µM) 50.9% [middle of 10 runs]; (compound 0.1 µM) 29.8% [middle of 10 runs]; (compound 0.316 µM) 26.9% [middle of 10 runs]; (compound 1 µM) 24.9% [middle of 10 runs]; (compound 3.16 µM) 22.2% [middle of 10 runs]; (compound 10 µM) 20.8% [middle of 10 runs].

Turning to `Cn1ncnc1[C@H]1c2n[nH]c(=O)c3cc(F)cc(c23)N[C@@H]1c1ccc(F)cc1`, the viability, T/C was 116% and 71.8% and 77.3% (compound 0.000999 µM); 99% and 81.1% and 72.7% (compound 0.00316 µM); 94.9% and 91.4% and 85.6% (compound 0.00999 µM); 69.3% and 56% and 68.8% (compound 0.0316 µM); 44.9% and 52.2% and 43.4% (compound 0.0999 µM); 29.7% and 35.6% and 29.1% (compound 0.316 µM). In addition, the IC50 (curve of compound) is 83.4 nM and 55.7 nM and 74.1 nM.

Consider `Nc1ccn(C2OC(CO)C(O)C2(F)F)c(=O)n1` (centres undefined), for which the viability, T/C runs as follows: (compound 0.0316 µM) 15% and 15.2%; (compound 0.1 µM) 14.2% and 11.3%; (compound 0.316 µM) 17.7% and 13.5%; (compound 1 µM) 16.3% and 13.1%; (compound 3.16 µM) 13.8% and 14.3%; (compound 10 µM) 14.2% and 11%. Moreover, where the note is “curve of compound”, the half-inhibitory concentration (IC50) was less than 31.6 nM.

With `O=C(c1cc(Cc2n[nH]c(=O)c3ccccc23)ccc1F)N1CCN(C(=O)C2CC2)CC1`, the viability, T/C by setting is: (compound 0.0316 µM) 91.1% and 68.5%; (compound 0.1 µM) 89.5% and 65.9%; (compound 0.316 µM) 96.8% and 82.5%; (compound 1 µM) 62.5% and 63.3%; (compound 3.16 µM) 56.2% and 45.9%; (compound 10 µM) 37.6% and 29%. Moreover, under “curve of compound”, the IC50 is 2510 nM and 2430 nM.

For `O=c1[nH]cc(F)c(=O)[nH]1`, the viability, T/C runs as follows: (compound 0.0316 µM) 102% and 99.7%; (compound 0.1 µM) 85% and 68.9%; (compound 0.316 µM) 101% and 89.5%; (compound 1 µM) 76.2% and 91.4%; (compound 3.16 µM) 44.2% and 71%; (compound 10 µM) 24.7% and 28.6%. For the same molecule, where the note is “curve of compound”, the IC50 is 2530 nM and 5590 nM.
